The results in this text go back to US20050049294A1, “Methods of using [3.2.0] heterocyclic compounds and analogs thereof” (priority 2003, published 2005).

In one data set the test system is PC-3 cells. Description: Cell growth inhibition (resazurin, 48 hours), PC-3. The class given is cell-based, human.
Another data set relates to MES-SA/Dx5 cells. Description: cells. The conditions noted are these: for Fold change: ratio of EC50 values (MES-SA/Dx5:MES-SA).
The subject of a further data set is RPMI 8226 cells. Description: Cell growth inhibition (resazurin, 48 hours), RPMI 8226.
The test system of the next data set is HL-60 cells. Description: Cell growth inhibition (resazurin, 48 hours), HL-60. An excerpt:
(§1) The DNA binding agent Mitoxantrone was included as a control, as HL-60/MX2 cells are reported to be resistant to this chemotherapeutic agent (Harker W. G. et al. 1989).

Data set [1] deals with T1, trypsin-like activity of purified rabbit 20S proteasomes (Oryctolagus cuniculus, UniProt G1SWK8).
T1 sequence (G1SWK8 1-271): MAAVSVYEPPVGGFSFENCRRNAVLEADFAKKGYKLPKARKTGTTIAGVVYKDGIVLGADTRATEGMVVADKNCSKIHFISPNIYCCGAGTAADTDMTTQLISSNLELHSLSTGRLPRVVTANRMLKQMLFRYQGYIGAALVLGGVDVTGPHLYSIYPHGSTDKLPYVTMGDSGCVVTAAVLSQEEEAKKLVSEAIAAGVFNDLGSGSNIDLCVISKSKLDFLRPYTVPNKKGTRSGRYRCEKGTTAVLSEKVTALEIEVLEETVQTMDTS
Description: biochemical.

A further data set relates to HL-60/MX2 cells. Nature of the data set: cells. The note with it: for Fold change: ratio of EC50 values (HL-60/MX2:HL-60).
Excerpt: as §1

The target in data set [2] is PGPH (caspase-like) activity of rabbit muscle 20S proteasomes (Oryctolagus cuniculus, UniProt A0A5F9DQW2). Nature of the data set: Inhibition of caspase-like (PGPH) activity of 20S proteasome (Z-LLE-AMC). In kind it is biochemical. The conditions noted are these: Table 3; mean EC50; purified rabbit 20S proteasomes. On the procedure: A commercially available fluorogenic substrate specific for the PGPH activity was used instead of the chymotrypsin substrate supplied in the proteasome assay kit described above.
The substrate Z-LLE-AMC was prepared as a 20 mM stock solution in DMSO, stored at −20° C. The source of the proteasomes was the commercially available kit from Calbiochem (Cat. #539158). As with the chymotrypsin substrate, the proteasome can cleave Z-LLE-AMC into Z-LLE and free AMC. The activity can then be determined by measuring the fluorescence of the released AMC (λex=390 nm and λem=460 nm). The proteasomes were activated with SDS and held on ice as per manufacturer's recommendation. […] The series was diluted 20-fold with assay buffer and preincubated with the proteasomes as described for the chymotrypsin-like activity. After addition of substrate, the samples were incubated at 37° C., and release of the fluorescent AMC was monitored in a fluorimeter. All data were collected and plotted as the mean of triplicate points. […] As before, the model chosen was a sigmoidal dose-response, with a variable slope.

Another data set deals with Jurkat cells. Description: Cytotoxicity against Jurkat cells. In kind it is cell-based, human.
For the next data set, the system named is CCD-27sk cells. Description: Cytotoxic activity against normal human fibroblasts. The conditions noted are these: 48h, panel of b226. In kind it is cell-based.
Data set [3] concerns PARP and Pro-Caspase 3 cleavage in RPMI 8226 cells. Description: Cleavage of PARP and Pro-Caspase 3 (western blot), RPMI 8226. In kind it is cell-based, human. The note with it: 100 nM, 0, 8 or 24 hours. On the procedure: Total protein lysates were made and 20 μg of the lysates were then resolved under reducing/denaturing conditions and blotted onto nitrocellulose. The blots were then probed with anti-PARP or anti-caspase 3 antibodies followed by stripping and reprobing with an anti-actin antibody.
25 μg of the lysates were then resolved under reducing/denaturing conditions and blotted onto nitrocellulose. The blots were then probed with anti-PARP or anti-caspase 3 antibodies followed by stripping and reprobing with an anti-actin antibody.

The next data set in a line: LogD7.4 determination. The note with it: pH 7.4. An excerpt:
(§2) These studies consisted of solubility assessment, LogD^7.4 determination and a preliminary screen to detect cytochrome P450 enzyme inhibition.

A further data set concerns the target CYP2D6 (Homo sapiens, UniProt P10635). Description: Preliminary P450 inhibition screen, CYP2D6.
Excerpt: as §2

For the next data set, the system named is tumor cell lines. Description: Cytotoxicity / growth inhibition, summary over several cell lines. The note with it: 48 h, read-out: EC50 values against RPMI 8226 and the prostate cell lines.
Assay in data set [4]: as above
The note with it: human, mouse.

In another data set the target is CYP1A2 (Homo sapiens, UniProt P05177). Nature of the data set: Preliminary P450 inhibition screen, CYP1A2.
Excerpt: as §2

Data set [5] has as its system Caspase-3 activity in Jurkat cells. Nature of the data set: Caspase-3 activity assay in Jurkat cells. The class given is cell-based, human. The note with it: EC50 concentration, 19 hours. On the procedure:
Jurkat cells were plated at 2×10^6 cells/3 mL per well in a 6-well plate and incubated at 37° C., 5% (v/v) C02 and 95% (v/v) humidity. […] Bhalla, et al., Blood 82:3133 (1993). […] Cells treated with 0.25% DMSO served as the negative control. The cells were collected by centrifugation and the media removed. Cell pellets were processed for the Caspase-3 activity assay as described in the manufacturer's protocol (EnzChek Caspase-3 Assay Kit from Molecular Probes (E-13183; see Appendix G, which form a part of this application and is also available at hypertext transfer protocol on the worldwide web at “probes.com/media/pis/mp13183.pdf.”. In brief, cell pellets were lysed on ice, mixed with the EnzChek Caspase-3 components in a 96-well plate, and then incubated in the dark for 30 minutes prior to reading fluorescence of cleaved benzyloxycarbonyl-DEVD-AMC using a Packard Fusion with λex=485 nm and λem=530 nm filters. Protein concentrations for lysates were determined using the BCA Protein Assay Kit (Pierce) and these values were used for normalization.

For the next data set, the system named is PANC-1 cells. Nature of the data set: Cell growth inhibition (resazurin, 48 hours), PANC-1. The note with it: Table 2, PANC-1, human pancreatic carcinoma, read-out: EC50 (nM), mean ± SD. The class given is cell-based.
Data set [6] deals with 60 human tumor cell lines. Nature of the data set: NCI screen of 60 human tumor cell lines. The conditions noted are these: 48 h, read-out: mean GI50. The class given is cell-based.
[7] abbreviates: Homo sapiens, MES-SA/Dx5, read-out: EC50 (nM) MES-SA/Dx5, Table 16.
[8] abbreviates: read-out: EC50 (nM) MES-SA/Dx5, Table 16.
Setting [9] is: Homo sapiens, RPMI-8226, Table 13, RPMI 8226.
[10] abbreviates: Homo sapiens, RPMI-8226, read-out: RPMI 8226 EC50 (nM), Table 15, mean EC50.
[11] abbreviates: Homo sapiens, HL-60, read-out: EC50 (nM) HL-60, Table 17.
Where [12] appears, read: read-out: EC50 (nM) HL-60, Table 17.
Setting [13] is: Homo sapiens, HL60/MX2, read-out: EC50 (nM) HL-60/MX2, Table 17.
The mark [14] stands for this setting: read-out: EC50 (nM) HL-60/MX2, Table 17.

Where “and” joins values, the source holds several entries; their conditions need not be identical. Equal entries are not always repeated. Where two headings read alike, the source gives them in different places.

PGPH (caspase-like) activity of rabbit muscle 20S proteasomes, sequence (A0A5F9DQW2 1-212): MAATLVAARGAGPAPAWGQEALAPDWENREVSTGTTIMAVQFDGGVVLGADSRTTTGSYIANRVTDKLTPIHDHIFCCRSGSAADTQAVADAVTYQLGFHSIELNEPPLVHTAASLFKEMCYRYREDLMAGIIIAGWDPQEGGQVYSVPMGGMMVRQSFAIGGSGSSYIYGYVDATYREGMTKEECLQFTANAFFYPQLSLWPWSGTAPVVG
CYP2D6, sequence (P10635 whole entry): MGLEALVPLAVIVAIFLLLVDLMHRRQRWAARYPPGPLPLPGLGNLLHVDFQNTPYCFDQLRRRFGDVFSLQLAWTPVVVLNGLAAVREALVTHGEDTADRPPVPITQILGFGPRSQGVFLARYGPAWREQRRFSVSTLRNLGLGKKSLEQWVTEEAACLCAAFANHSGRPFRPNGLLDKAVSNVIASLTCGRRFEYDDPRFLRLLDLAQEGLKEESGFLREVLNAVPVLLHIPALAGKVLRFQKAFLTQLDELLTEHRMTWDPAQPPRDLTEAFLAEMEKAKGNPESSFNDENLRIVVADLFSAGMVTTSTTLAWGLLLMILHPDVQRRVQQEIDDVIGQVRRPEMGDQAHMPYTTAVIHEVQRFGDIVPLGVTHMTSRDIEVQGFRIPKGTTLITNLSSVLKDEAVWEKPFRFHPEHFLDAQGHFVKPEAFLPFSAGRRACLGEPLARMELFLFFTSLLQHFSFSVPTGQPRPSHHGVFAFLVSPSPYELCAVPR
CYP1A2, sequence (P05177 whole entry): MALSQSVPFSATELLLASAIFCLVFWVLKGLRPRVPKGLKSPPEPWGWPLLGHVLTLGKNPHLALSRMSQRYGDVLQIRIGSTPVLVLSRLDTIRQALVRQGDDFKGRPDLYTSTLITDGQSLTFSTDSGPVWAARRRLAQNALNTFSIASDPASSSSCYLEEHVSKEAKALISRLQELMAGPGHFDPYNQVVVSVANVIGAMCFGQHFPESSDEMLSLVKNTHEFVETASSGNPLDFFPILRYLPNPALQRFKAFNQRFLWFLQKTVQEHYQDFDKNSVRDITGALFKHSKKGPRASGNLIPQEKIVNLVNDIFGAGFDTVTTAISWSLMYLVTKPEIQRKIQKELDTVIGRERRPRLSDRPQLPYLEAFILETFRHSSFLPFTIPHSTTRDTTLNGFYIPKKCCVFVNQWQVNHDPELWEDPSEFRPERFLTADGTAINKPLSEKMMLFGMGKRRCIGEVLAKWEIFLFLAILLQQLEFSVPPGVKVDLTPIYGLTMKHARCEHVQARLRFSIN

For the compound `C[C@@]12OC(=O)[C@]1([C@@H](O)C1CCCCC1)NC(=O)[C@@H]2CCCl` [Formula II-2], the EC50 was found to be 284 ± 110 nM in the data set with PC-3 cells (Homo sapiens, Table 13, PC-3, read-out: EC50); 220 nM in the data set on MES-SA/Dx5 cells (setting [7]); 138 nM in the data set on MES-SA/Dx5 cells (setting [8]); 49 nM in the data set on RPMI 8226 cells (setting [9]); 47 nM in the data set with RPMI 8226 cells (setting [10]); 45 nM in the data set on RPMI 8226 cells (Table 13, RPMI 8226). For the same compound, the EC50 with HL-60 cells (setting [11]) is 237 nM; in the data set on HL-60 cells (setting [12]), 176 nM; in [1], 230 nM; in the data set with HL-60/MX2 cells (setting [13]) it was 142 nM; in the data set with HL-60/MX2 cells (setting [14]), 133 nM; in [2], 1500 nM. In addition, the Fold change with MES-SA/Dx5 cells (Table 16) came to 1.0 fold; with HL-60/MX2 cells (Table 17) it was 0.7 fold.
With `C[C@@]12OC(=O)[C@]1([C@@H](O)C1CCCCC1)NC(=O)[C@@H]2CCBr` [Formula II-4], the EC50 in the data set with PC-3 cells (Homo sapiens, PC-3) came out at 204 ± 49 nM; in the data set on MES-SA/Dx5 cells (setting [7]), 178 nM; in the data set on MES-SA/Dx5 cells (setting [8]) it was 93 nM; in the data set on RPMI 8226 cells (setting [9]) it was 57 nM; in the data set on RPMI 8226 cells (setting [10]) it was 54 nM; with HL-60 cells (setting [11]), 111 nM. Moreover, the EC50 in [1] turned out to be 109 nM; with HL-60/MX2 cells (setting [13]) it was 103 nM; with HL-60/MX2 cells (setting [14]), 97 nM. Besides, the Fold change is listed as 0.9 fold in the data set with MES-SA/Dx5 cells (Table 16) and 0.8 fold in the data set with HL-60/MX2 cells (Table 17).
For the compound `C[C@@]12OC(=O)[C@]1([C@@H](O)[C@@H]1C=CCCC1)NC(=O)[C@@H]2CCCl` [Formula II-16, Salinosporamide A], the EC50 in the data set on PC-3 cells (Homo sapiens, PC-3, 48 h, PC3, 48h, panel of b226) turned out to be 78 nM; with PC-3 cells (Homo sapiens, PC-3, 48 h, read-out: EC50 (nM), mean ± SD, Table 2, PC-3, human prostate adenocarcinoma, 48 hours) it was 64 ± 26 nM; with PC-3 cells (Homo sapiens, PC-3, Table 6, PC-3 (n = 2)) it was 31 nM; in the data set on PC-3 cells (Table 6, PC-3 (n = 2)), 25 nM; in the data set on Jurkat cells (Homo sapiens, Jurkat) it was 10 nM; in the data set on CCD-27sk cells, 196 nM. Also, the EC50 was 23 ± 1 nM in the data set with MES-SA/Dx5 cells (Homo sapiens, MES-SA/Dx5, read-out: EC50 (nM), mean ± SD); 10 to 37 nM with tumor cell lines; 60 nM with PANC-1 cells; 8.6 ± 1.9 nM in the data set with RPMI 8226 cells (Homo sapiens, RPMI-8226, 48 h, read-out: EC50 (nM), mean ± SD); 10 ± 3 nM in the data set with RPMI 8226 cells (Homo sapiens, RPMI-8226, read-out: EC50 (nM), mean ± SD); 27 nM in the data set on HL-60 cells (Homo sapiens, HL-60, Table 8, HL-60). Further, the EC50 came to 30 nM with HL-60 cells (Table 8, HL-60); 28 nM in the data set on HL-60/MX2 cells (Homo sapiens, HL60/MX2, Table 8, HL-60/MX2); 25 nM in the data set with HL-60/MX2 cells (Table 8, HL-60/MX2). Further, the “% cytotoxicity” value was 88% and 89% in the data set on PC-3 cells (Table 6, PC-3 (n = 2)); 88% and 91% in the data set on HL-60 cells (Table 8, HL-60); 84% and 89% in the data set on HL-60/MX2 cells (Table 8, HL-60/MX2). In the data set with Jurkat cells (Table 5, Jurkat Cells), the “% max cell kill” value was 97%. Also, the “% cytotoxicity, mean ± SD” value is reported as 92 ± 2% in the data set on MES-SA/Dx5 cells (Table 7, MES-SA/Dx5); 94 ± 1% with RPMI 8226 cells (Table 6, RPMI 8226 (n = 5)); 94 ± 0% in the data set with RPMI 8226 cells (Table 9, RPMI 8226, 48 hour). Also, the “induction of PARP cleavage” value in data set [3] is “noticeable at 8 hours and complete by 24 hours”. The compound further yielded a LogD7.4 in “LogD7.4 determination” of 2.4. In addition, the inhibition at 10 µM against CYP2D6 worked out at 19%; on CYP1A2, 3%. The EC50 at 48 h in data set [4] is 10 to 200 nM. In data set [5], the Caspase-3 activity entry is recorded as “activation of Caspase-3”. Moreover, the GI50 in data set [6] was under 10 nM.
In the case of `C[C@@]12OC(=O)[C@]1([C@@H](O)[C@@H]1C=CCCC1)NC(=O)[C@@H]2CCBr` [Formula II-18], the EC50 with PC-3 cells (Homo sapiens, PC-3) is 35 ± 5.6 nM; in the data set with RPMI 8226 cells (Homo sapiens, RPMI-8226, 48 h, read-out: EC50, μM (mean ± SD), Table 9, RPMI 8226, 48 hour) it was 17 nM; in the data set with RPMI 8226 cells (setting [9]), 6.3 nM; in the data set with RPMI 8226 cells (setting [10]) it was 6.3 nM; with RPMI 8226 cells (read-out: EC50, μM (mean ± SD), Table 9, RPMI 8226, 48 hour), 22 nM; in the data set on HL-60 cells (setting [11]), 27 nM. Further, the EC50 in the data set with HL-60 cells (setting [12]) worked out at 23 nM; in data set [1], 14 nM; with HL-60/MX2 cells (setting [13]), 19 nM; in the data set on HL-60/MX2 cells (setting [14]), 18 nM; in data set [2] it was 250 nM. Besides, the Fold change with MES-SA/Dx5 cells (Table 16) was found to be 1.2 fold; in the data set on HL-60/MX2 cells (Table 17), 0.7 fold. For the same compound, the “% cytotoxicity, mean ± SD” value in the data set on RPMI 8226 cells (Table 9, RPMI 8226, 48 hour) is 94, 94%.
